Only the 19 paired bases of each siRNA are shown; overhangs and chemistry are not given here.
Also: test concentration or dose not given here.

The target in one data set is PTEN. As to the kind of experiment: five studies, different assays. Conditions: siRNA.
Turning to “sense GGGACGAACUGGUGUAAUG / antisense CAUUACACCAGUUCGUCCC”, the target inhibition is 75%.
On to “sense ACCAUCUCCAGCUAUUUAC / antisense GUAAAUAGCUGGAGAUGGU”, for which the target inhibition worked out at 6%.
Same read-out and setting: as for “sense CUUCCUCGGCUUCUCCUGA / antisense UCAGGAGAAGCCGAGGAAG”, the figure is 62%; as for “sense AAAGGUGAAGAUAUAUUCC / antisense GGAAUAUAUCUUCACCUUU”, 9%; as for “sense UCCACAGGGUUUUGACACU / antisense AGUGUCAAAACCCUGUGGA”, 45%.
With “sense AUACAGGAACAAUAUUGAU / antisense AUCAAUAUUGUUCCUGUAU”, the target inhibition amounted to 49%.
Same read-out and setting: then “sense CCUUUUGUGAAGAUCUUGA / antisense UCAAGAUCUUCACAAAAGG”, with 73%.
Turning to “sense UAAAACACCAUGAAAAUAA / antisense UUAUUUUCAUGGUGUUUUA”, the target inhibition turned out to be 58%.
Same read-out and setting: as for “sense UUACCAGUUAUAGGAACAA / antisense UUGUUCCUAUAACUGGUAA”, the figure is 40%.
For “sense CCUGUGAGCAGCCGCGGGG / antisense CCCCGCGGCUGCUCACAGG”, the target inhibition was 25%.
Same read-out and setting: as for “sense UCUGUCACCAACUGAAGUG / antisense CACUUCAGUUGGUGACAGA”, the figure is 25%.
The same measure, in the same setting: as for “sense CUCAGAAAGGAAAUAAUUU / antisense AAAUUAUUUCCUUUCUGAG”, the figure is 30%; as for “sense AUAAAGACAAAGCCAACCG / antisense CGGUUGGCUUUGUCUUUAU”, 0%; as for “sense UUCCGAAAGGUUUUGCUAC / antisense GUAGCAAAACCUUUCGGAA”, 32%.
Still for that read-out and setting: then “sense GGUCUUCCGAGGCGCCCGG / antisense CCGGGCGCCUCGGAAGACC”, with 0%; and “sense AAGAAACACAGCAACAAUG / antisense CAUUGUUGCUGUGUUUCUU”, with 30%; and “sense GGGUAAAUACAUUCUUCAU / antisense AUGAAGAAUGUAUUUACCC”, with 70%.
With “sense GGUCCCGUCCGCCUCUCGC / antisense GCGAGAGGCGGACGGGACC”, the target inhibition stood at 0%.
Still for that read-out and setting: then “sense CAGUCAGAGGCGCUAUGUG / antisense CACAUAGCGCCUCUGACUG”, with 73%; and “sense GCGGUCCAGAGCCAAGCGG / antisense CCGCUUGGCUCUGGACCGC”, with 31%.
As for “sense CUUGACCUAUAUUUAUCCA / antisense UGGAUAAAUAUAGGUCAAG”, the target inhibition turned out to be 48%.
Same read-out and setting: as for “sense UUCCCGUUUUAUUCCAGUU / antisense AACUGGAAUAAAACGGGAA”, the figure is 38%.
For the substance “sense GCACAUCCAGGGACCCGGG / antisense CCCGGGUCCCUGGAUGUGC”, the target inhibition amounted to 32%.
Same read-out and setting: as for “sense CACUGACUCUGAUCCAGAG / antisense CUCUGGAUCAGAGUCAGUG”, the figure is 15%; as for “sense AAGAAUGGGCUUGAAACAU / antisense AUGUUUCAAGCCCAUUCUU”, 40%; as for “sense AGUGAAUCUGUAUUGGGGU / antisense ACCCCAAUACAGAUUCACU”, 39%.
Same read-out and setting: then “sense CUCUGGCUGCUGAGGAGAA / antisense UUCUCCUCAGCAGCCAGAG”, with 52%.

The next data set has as its target placental-type alkaline phosphatase. The experiment in a line: five studies, different assays. The conditions noted are these: siRNA.
Turning to “sense CACUGCCGACCACUCCCAC / antisense GUGGGAGUGGUCGGCAGUG”, the target inhibition was -10%.
For “sense GACUGAGACGAUCAUGUUC / antisense GAACAUGAUCGUCUCAGUC”, the target inhibition is 85%.
Same read-out and setting: as for “sense UGUUCGACGACGCCAUUGA / antisense UCAAUGGCGUCGUCGAACA”, the figure is 74%; as for “sense CGGCGCCCGGCCGGAUGUU / antisense AACAUCCGGCCGGGCGCCG”, 60%; as for “sense CCUACACGGUCCUCCUAUA / antisense UAUAGGAGGACCGUGUAGG”, 62.4%.

The record behind these values is the OligoGym collection.
